Tests used:
hERG ion channel = target: T1, hERG ion channel (Homo sapiens, UniProt Q12809); test: cell-based
T1 construct: expressed in transfected cells; host or cells: HEK-293
Excerpt: Confirmation of interaction with the potassium channels was made by means of a functional cell test (patch clamp) that uses HEK-293 recombinant human cells that stably express the hERG ion channel, as described in Zhou Z. et al. Biophys. J. 1998; 74:230.
Confirmation of interaction with the potassium channels was made by means of the patch clamp test described in Zhou Z. et al. Biophys. J. 1998; 74:230 using the recombinant human cell line HEK-293, which stably expresses the hERG ion channel.

5-HT1B = target: T2, 5-HT1B (Rattus norvegicus, UniProt P28564); test: Binding to the serotoninergic receptors; conditions: purified membranes
T2 construct: purified membranes from selected animal tissues; from tissue; host or cells: animal tissue membranes; rat brain inferred from Hoyer 1985
T2 sequence (P28564 whole entry): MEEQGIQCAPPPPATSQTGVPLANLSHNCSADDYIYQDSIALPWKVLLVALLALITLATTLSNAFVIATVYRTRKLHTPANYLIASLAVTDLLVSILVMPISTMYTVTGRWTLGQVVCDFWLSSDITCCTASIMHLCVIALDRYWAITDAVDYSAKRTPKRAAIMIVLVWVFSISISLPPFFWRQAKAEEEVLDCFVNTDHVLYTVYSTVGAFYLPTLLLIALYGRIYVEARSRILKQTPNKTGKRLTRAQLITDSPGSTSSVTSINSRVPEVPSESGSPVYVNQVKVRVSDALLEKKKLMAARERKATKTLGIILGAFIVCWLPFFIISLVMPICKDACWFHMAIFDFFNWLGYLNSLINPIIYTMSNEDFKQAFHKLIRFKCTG
Procedure: (§1) Confirmation of the binding to the serotoninergic receptors was performed by means of the biochemical test on purified membranes from recombinant human cells that stably express the specific receptors or from animal tissues selected as described in particular for each type of serotoninergic receptor, in: Martin G. R. and Humphrey P. P. A. Neuropharmacol. 1994, 33:261; Hoyer D. Eur. J. Pharmacol. 1985, 118:1; Bonhaus DW et al. Br. J. Pharmacol. 1995, 115:622; Wolf WA et al. J. Neurochem. 1997, 69:1449; Boess F G et al. Neuropharmacol. 1997, 36:637; Mialet J et al. Br. J. Pharmacol. 2000; 129:771; Rees S et al. FEBS Lett. 1994, 355:242; Monsma F. J. et al. Mol. Pharmacol. 1993, 43:320; Roth BL et al. J. Pharmacol. Exp. Ther. 1994, 268: 1403; and Shearman L P et al. Am. J. Physiol. 1998, 275: C1621.
(§2) Confirmation of the binding to the serotoninergic receptors was made using purified membranes from selected animal tissues or from recombinant human cells that stably express the specific receptors, as described in: Martin G. R. and Humphrey P. P. A. Neuropharmacol. 1994, 33:261; Hoyer D. Eur. J. Pharmacol. 1985, 118:1; Bonhaus DW et al. Br. J. Pharmacol. 1995, 115:622; Wolf WA et al. J. Neurochem. 1997, 69:1449; Boess FG et al. Neuropharmacol. 1997, 36:637; Mialet J et al. Br. J. Pharmacol. 2000, 129:771; Rees S et al. FEBS Lett. 1994, 355:242; Monsma F. J. et al. Mol. Pharmacol. 1993, 43:320; Roth BL et al. J. Pharmacol. Exp. Ther. 1994, 268: 1403; and Shearman LP et al. Am. J. Physiol. 1998, 275: C1621.

5-HT transporter - SERT = 5-HT transporter - SERT (UniProt P31645); test: Binding to the serotoninergic receptors; conditions: purified membranes
Procedure: as §1, §2

5-HT2A = target: T3, 5-HT2A (Homo sapiens, UniProt P28223); test: Binding to the serotoninergic receptors; conditions: purified membranes
T3 construct: expressed in transfected cells
T3 sequence (P28223 whole entry): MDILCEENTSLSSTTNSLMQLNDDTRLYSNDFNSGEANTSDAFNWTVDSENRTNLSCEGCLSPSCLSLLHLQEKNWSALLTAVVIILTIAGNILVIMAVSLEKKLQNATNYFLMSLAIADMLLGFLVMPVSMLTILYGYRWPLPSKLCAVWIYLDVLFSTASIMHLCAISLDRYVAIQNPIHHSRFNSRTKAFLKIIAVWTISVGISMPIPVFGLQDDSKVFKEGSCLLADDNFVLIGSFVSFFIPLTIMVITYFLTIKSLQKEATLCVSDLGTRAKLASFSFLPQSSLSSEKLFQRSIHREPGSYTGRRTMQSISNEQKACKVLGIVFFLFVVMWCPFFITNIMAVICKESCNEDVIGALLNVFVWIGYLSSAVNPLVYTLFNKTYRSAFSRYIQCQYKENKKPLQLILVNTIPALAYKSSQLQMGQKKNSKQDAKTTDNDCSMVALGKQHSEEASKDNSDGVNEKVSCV
Procedure: as §1, §2

5-HT7 = 5-HT7 (UniProt P34969); test: Binding to the serotoninergic receptors; conditions: purified membranes
Sequence of 5-HT7 (P34969 1-432 limits assumed): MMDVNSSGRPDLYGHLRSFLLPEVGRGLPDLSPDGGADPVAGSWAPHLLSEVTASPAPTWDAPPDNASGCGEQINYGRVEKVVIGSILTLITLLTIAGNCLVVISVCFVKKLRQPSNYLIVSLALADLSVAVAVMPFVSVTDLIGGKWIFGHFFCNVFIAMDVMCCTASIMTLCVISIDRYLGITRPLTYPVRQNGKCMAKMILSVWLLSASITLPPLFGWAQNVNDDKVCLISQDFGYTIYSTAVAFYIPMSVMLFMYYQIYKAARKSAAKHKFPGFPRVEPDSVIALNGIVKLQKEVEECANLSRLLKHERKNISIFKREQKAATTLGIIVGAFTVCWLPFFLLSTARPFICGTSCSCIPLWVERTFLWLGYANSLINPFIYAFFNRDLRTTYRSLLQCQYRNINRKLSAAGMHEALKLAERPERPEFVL
Procedure: as §1, §2

5-HT4 receptor = target: T4, 5-HT4 receptor (Homo sapiens, UniProt Q13639); test: Binding to the serotoninergic receptors
T4 construct: expressed in transfected cells
T4 sequence (Q13639 1-378 isoform Q13639-5): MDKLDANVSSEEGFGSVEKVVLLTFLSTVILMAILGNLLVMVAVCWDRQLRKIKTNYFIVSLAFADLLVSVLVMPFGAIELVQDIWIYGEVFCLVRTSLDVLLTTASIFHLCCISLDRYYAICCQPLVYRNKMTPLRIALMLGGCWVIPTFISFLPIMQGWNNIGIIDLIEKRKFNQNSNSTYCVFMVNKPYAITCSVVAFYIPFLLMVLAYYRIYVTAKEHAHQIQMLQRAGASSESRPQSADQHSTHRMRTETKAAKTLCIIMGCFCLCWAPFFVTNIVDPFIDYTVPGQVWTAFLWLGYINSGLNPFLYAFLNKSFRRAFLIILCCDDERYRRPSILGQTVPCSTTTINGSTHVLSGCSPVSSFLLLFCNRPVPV
Procedure: as §1, §2

5-HT3 = target: T5, 5-HT3 (UniProt P46098); test: Binding to the serotoninergic receptors; conditions: purified membranes
T5 sequence (P46098 1-478): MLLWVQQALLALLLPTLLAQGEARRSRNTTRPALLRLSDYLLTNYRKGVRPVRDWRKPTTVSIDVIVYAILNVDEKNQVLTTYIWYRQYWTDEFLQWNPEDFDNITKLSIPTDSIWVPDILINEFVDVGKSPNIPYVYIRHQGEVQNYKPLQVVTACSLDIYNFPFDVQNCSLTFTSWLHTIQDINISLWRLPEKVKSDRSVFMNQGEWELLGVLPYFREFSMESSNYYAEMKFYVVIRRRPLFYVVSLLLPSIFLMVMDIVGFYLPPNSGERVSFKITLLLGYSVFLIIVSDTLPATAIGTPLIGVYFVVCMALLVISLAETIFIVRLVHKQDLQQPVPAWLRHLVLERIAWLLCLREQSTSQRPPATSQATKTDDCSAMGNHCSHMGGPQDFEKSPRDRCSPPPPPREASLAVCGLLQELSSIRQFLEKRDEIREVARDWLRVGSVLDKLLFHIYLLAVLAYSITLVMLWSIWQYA
Procedure: as §1, §2

5-HT2C = target: T6, 5-HT2C (UniProt P28335); test: Binding to the serotoninergic receptors; conditions: purified membranes
T6 sequence (P28335 1-458): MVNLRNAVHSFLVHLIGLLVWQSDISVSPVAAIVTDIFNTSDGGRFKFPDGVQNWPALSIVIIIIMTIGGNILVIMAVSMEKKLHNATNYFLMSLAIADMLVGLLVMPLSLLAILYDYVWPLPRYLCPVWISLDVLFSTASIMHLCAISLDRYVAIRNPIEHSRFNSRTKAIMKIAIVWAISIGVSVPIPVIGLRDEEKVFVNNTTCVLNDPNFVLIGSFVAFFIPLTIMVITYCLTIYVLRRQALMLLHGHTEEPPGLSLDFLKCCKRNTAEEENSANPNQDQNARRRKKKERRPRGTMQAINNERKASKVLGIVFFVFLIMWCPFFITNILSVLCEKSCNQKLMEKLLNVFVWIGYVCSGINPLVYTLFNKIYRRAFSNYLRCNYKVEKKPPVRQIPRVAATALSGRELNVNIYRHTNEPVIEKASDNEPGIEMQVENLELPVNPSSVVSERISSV
Procedure: as §1, §2

5-HT5A = target: T7, 5-HT5A (Homo sapiens, UniProt P47898); test: Binding to the serotoninergic receptors; conditions: purified membranes
T7 construct: expressed in transfected cells
T7 sequence (P47898 whole entry): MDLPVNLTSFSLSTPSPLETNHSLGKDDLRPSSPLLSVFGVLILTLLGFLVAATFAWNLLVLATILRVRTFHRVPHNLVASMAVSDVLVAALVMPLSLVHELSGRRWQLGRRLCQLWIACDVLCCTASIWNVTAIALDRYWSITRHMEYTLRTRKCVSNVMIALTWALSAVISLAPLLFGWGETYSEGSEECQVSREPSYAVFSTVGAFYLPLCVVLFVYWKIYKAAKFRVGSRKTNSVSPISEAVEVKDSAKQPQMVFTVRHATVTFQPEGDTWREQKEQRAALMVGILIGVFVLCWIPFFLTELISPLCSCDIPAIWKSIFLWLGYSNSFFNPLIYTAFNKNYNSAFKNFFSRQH
Procedure: as §1, §2

5-HT2B = target: T8, 5-HT2B (Homo sapiens, UniProt P41595); test: Binding to the serotoninergic receptors; conditions: purified membranes
T8 construct: expressed in transfected cells
T8 sequence (P41595 whole entry): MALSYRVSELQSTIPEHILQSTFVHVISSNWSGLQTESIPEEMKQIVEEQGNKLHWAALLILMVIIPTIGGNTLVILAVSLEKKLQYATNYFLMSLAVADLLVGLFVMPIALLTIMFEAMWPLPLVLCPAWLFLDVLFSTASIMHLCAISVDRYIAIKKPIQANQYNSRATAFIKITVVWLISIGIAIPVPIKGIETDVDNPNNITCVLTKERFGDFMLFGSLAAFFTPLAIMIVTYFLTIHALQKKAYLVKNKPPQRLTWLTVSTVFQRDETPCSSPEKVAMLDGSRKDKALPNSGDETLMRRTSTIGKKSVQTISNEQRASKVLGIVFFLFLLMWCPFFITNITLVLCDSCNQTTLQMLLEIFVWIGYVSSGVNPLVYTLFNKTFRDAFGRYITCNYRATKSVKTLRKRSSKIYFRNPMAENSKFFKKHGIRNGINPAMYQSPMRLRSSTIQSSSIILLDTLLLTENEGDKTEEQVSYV
Procedure: as §1, §2

5-HT1A = target: T9, 5-HT1A (Homo sapiens, UniProt P08908); test: Binding to the serotoninergic receptors; conditions: purified membranes
T9 sequence (P08908 1-422): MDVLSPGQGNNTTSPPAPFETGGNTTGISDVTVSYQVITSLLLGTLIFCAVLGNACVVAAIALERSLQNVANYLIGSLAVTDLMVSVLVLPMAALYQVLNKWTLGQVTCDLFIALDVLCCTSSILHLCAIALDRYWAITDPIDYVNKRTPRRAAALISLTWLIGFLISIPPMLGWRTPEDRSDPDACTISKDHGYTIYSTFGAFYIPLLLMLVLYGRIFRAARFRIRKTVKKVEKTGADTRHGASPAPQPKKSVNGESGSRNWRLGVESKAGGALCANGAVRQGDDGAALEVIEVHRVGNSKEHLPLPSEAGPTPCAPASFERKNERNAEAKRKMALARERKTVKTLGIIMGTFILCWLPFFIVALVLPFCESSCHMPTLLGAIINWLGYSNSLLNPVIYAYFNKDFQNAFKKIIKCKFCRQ
Procedure: as §1, §2

5-HT6 = 5-HT6 (UniProt P50406); test: Binding to the serotoninergic receptors; conditions: purified membranes
Procedure: as §1, §2

T1 sequence (Q12809 whole entry): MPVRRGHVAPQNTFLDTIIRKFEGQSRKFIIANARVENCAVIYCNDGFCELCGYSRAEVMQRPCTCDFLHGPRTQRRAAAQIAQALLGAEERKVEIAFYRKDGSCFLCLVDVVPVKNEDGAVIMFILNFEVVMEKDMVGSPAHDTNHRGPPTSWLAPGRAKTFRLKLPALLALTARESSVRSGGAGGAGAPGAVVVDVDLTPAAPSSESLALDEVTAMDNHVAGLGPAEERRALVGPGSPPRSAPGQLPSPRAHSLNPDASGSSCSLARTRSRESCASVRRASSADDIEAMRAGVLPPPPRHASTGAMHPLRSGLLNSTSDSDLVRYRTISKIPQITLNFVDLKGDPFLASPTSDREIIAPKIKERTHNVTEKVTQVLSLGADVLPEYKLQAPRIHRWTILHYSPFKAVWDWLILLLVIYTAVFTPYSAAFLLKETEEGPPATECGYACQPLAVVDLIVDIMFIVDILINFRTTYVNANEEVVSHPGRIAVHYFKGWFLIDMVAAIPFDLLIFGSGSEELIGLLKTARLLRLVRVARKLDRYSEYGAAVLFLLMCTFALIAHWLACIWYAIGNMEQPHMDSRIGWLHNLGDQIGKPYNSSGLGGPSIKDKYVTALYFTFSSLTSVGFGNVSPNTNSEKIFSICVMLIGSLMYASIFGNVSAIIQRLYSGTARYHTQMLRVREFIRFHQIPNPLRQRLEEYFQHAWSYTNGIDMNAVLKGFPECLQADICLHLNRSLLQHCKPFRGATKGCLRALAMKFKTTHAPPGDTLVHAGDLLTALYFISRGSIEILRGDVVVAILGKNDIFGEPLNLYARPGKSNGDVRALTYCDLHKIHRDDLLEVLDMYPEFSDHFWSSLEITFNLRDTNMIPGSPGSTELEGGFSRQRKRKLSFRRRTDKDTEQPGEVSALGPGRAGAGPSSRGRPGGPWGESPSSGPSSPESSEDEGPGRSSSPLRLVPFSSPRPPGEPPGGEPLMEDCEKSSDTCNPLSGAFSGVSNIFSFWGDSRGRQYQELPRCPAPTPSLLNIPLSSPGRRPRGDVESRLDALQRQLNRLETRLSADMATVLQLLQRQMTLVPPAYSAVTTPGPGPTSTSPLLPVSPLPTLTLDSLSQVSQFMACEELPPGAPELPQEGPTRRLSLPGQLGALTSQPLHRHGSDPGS

CC(C)n1nc(C(=O)NCC2CCN(CCc3ccc(C(=O)O)cc3)CC2)c2ccccc21 [Compound 1, 4-{2-[4-({[(1-Isopropyl-1H-indazol-3-yl)carbonyl]amino}methyl)piperidin-1-yl]ethyl}benzoic acid]
IC50 (hERG ion channel): > 50 µM
inhibition at 0.01 µM (hERG ion channel; human): 0%
inhibition at 0.1 µM (hERG ion channel; human): 0%
inhibition at 1 µM (hERG ion channel; human): 0.9%
inhibition at 10 µM (hERG ion channel; human): 6.5%
inhibition at 50 µM (hERG ion channel; human): 18.8%
melting point: 179 to 181 °C
IC50 (5-HT1B): > 10 µM
IC50 (5-HT transporter - SERT): > 10 µM
IC50 (5-HT2A): > 10 µM
IC50 (5-HT7): > 10 µM
IC50 (5-HT4 receptor): 0.0008 µM
inhibition of binding to the 5-HT4 receptor (selectivity, in words) (5-HT4 receptor; versus the other serotoninergic receptors): selective inhibition of binding to the 5-HT4 receptor
IC50 (5-HT3): > 10 µM
IC50 (5-HT2C): > 10 µM
IC50 (5-HT5A): > 10 µM
IC50 (5-HT2B): > 10 µM
IC50 (5-HT1A): > 10 µM
IC50 (5-HT6): > 10 µM
